According to US20140308313A1 (priority 2006, published 2014):

How the values were obtained:
[1] = system: GBS80-IgG; parameters: species or system mice; conditions: mouse, in vivo
[2] = system: H3N2-specific antibodies; test: α-GC in first, second or both priming doses of H3N2, challenge at week 56; format: in vivo, C57BL/6 mice
Description: (§1) FIG. 8 depicts the immunisation schedule used to assess whether α-GC is required to be present in all vaccine doses used at priming. 20 C57BL/6 female mice, aged 6-8 weeks, were divided into 4 groups of 5 mice. Group 1) was immunised with H3N2 in PBS at week 0 and H3N2+α-GC 2 weeks later. Group 2) were immunised with H3N2+α-GC at week 0 and H3N2 in PBS 2 weeks later. Group 3) were immunised with H3N2 in PBS at week 0 and week 2. Group 4) were immunised with H3N2 and α-GC at week 0 and 2 weeks later. 56 weeks after the initial immunisation, mice in all groups were challenged with 3 μg H3N2 in PBS and recall response was assessed at 58 weeks. All immunisations were intramuscular.
as §1, with “20” for “FIG. 8 depicts the immunisation schedule used to assess whether α-GC is required to be present in all vaccine doses used at priming. 20”, “PBS.” for “PBS and recall response was assessed at 58 weeks.”

[3] = system: protein-specific antibodies (TT, DT, H3N2); parameters: species or system C57/BL6 mice; conditions: mouse, in vivo
[4] = system: H3N2-specific antibodies; test: H3N2 antibody response in mice bearing or lacking iNKT cells or CD1d; format: in vivo; conditions: mice lacking CD1d (CD1−/−); data not shown
Description: Mice lacking iNKT cells (Ja18−/−) immunised with H3N2 and α-GC (closed boxes) show no enhancement in serum titer of H3N2-specific antibodies compared to mice lacking iNKT cells immunised with H3N2 alone (open boxes). All immunisations were subcutaneous.

[5] = system: MenB antigens ΔG287nz-953, 936-741 and 961c; parameters: species or system mice; conditions: mouse, in vivo
[6] = system: CD4 T cells producing TNFα; format: in vivo, CD1 mice; conditions: 10 days after 2nd immunisation, splenocytes cultured 16 hours
Protocol: FIG. 14 show a comparison of the CD4 T cell response against recombinant MenB antigens in mice immunised intramuscularly on day 0 and 21 with: a) a combination vaccine containing 3 MenB antigens and α-GC; b) a combination vaccine containing 3 MenB antigens and Alum; or c) with a combination vaccine containing 3 MenB antigens alone. The CD4 T cell response was assessed two weeks after the second immunisation by incubating total splenocytes with the indicated amount of MenB recombinant proteins for 16 hours ([…] of which in the presence of Brefeldin A). The number CD4 T cells producing TNFα was determined by intracellular staining and FACS analysis). […] As a positive control, response of all three groups of mice to polyclonal stimulation was tested.
A second experiment was conducted to assess the ex vivo CD4 T cell response to MenB antigens. Groups of 6 CD1 female mice were immunised twice with the mix of MenB antigens, formulated in PBS, alum or α-GC. 10 days after the 2nd immunisation, 3 mice/group were sacrificed and their spleens were removed. Whole splenocyte suspensions from individual mice were cultured with the MenB antigens for 16 hours, the last 12 of which were in the presence of brefeldin A to allow intracellular accumulation of cytokines. […] Percentages of CD3+CD4+CD69+ cytokine+ cells in the total CD4+ cell population were determined by FACS analysis.

[7] = system: MenB-specific memory B cells; parameters: species or system mice; conditions: mouse, in vivo
[8] = system: MenB; parameters: species or system mice; conditions: mouse, in vivo

Compound: CCCCCCCCCCCCCCCCCCCCCCCCCC(=O)N[C@@H](CO[C@H]1OC(CO)[C@H](O)C(O)C1O)[C@H](O)[C@@H](O)CCCCCCCCCCCCCC (stereo partly drawn) [α-GC, α-galactosylceramide]
- GBS80-IgG response in the mothers relative to alum [1]: 8 fold
- efficacy by timing of α-GC dose ([2]; first versus second vaccine dose): Maximal efficacy was observed when α-GC was given in the first vaccine dose
- recall response (H3N2 Ig titers) compared to 2 doses of H3N2 alone ([2]; two weeks after booster with H3N2 alone on week 56): higher recall responses
- H3N2-antibody response compared to H3N2 in PBS ([2]; α-GC in both, first only or second only immunisation): enhance the antibody response even when given only in the first or second immunisation
- serum titers of protein-specific antibodies compared to proteins alone [3]: one to two logs higher
- adjuvant activity [4]: did not display adjuvant activity
- antibody response (IgG titers) to the three MenB antigens [5]: as effective as alum
- expansion of CD4 T cells producing TNFα in response to MenB antigens [6]: more effective than alum
- frequencies of MenB-specific memory B cells in spleen compared to alum [7]: higher frequencies of MenB-specific memory B cells
- bactericidal antibody titers compared to alum [8]: higher bactericidal antibody titers than alum
